Test results as given in US9255085B2, “Carboxamide compounds and methods for using the same” (Rigel Pharmaceuticals, Inc., priority 2008, dated 2016).

Target: AMPK
Experiment: AMPK activation, enzyme-linked immunosorbent assay
Format: biochemical
Conditions: ELISA
Procedure: Compounds 1-13 were assayed for their ability to activate AMPK using an enzyme-linked immunosorbent assay.
Compounds 14-16 were assayed for their ability to activate AMPK using an enzyme-linked immunosorbent assay.
Compounds 17-18 were assayed for their ability to activate AMPK using an enzyme-linked immunosorbent assay.
Compounds 19-22 were assayed for their ability to activate AMPK using an enzyme-linked immunosorbent assay.
Compounds 23-26 were assayed for their ability to activate AMPK using an enzyme-linked immunosorbent assay.
Compounds 27-33 were assayed for their ability to activate AMPK using an enzyme-linked immunosorbent assay.
Compounds 34-42 were assayed for their ability to activate AMPK using an enzyme-linked immunosorbent assay.

EC50 (Table 7) [nM]	EC50 (Table 8) [nM]	Compound
–	1000 to 10000	N#Cc1ccc(CN2CCc3ccc(C(=O)NC4CCN(Cc5ccc(C(F)(F)F)cc5)CC4)cc3C2)cc1 [Compound 39, 2-(4-Cyanobenzyl)-N-(1-(4-(trifluoromethyl)benzyl)piperidin-4-yl)-1,2,3,4-tetrahydroisoquinoline-7-carboxamide]
–	< 100	N#Cc1ccc(CN2CCC(NC(=O)c3ccc4c(c3)CN(Cc3ccc(F)cc3)CC4)CC2)cc1 [Compound 40, N-(1-(4-cyanobenzyl)piperidin-4-yl)-2-(4-fluorobenzyl)-1,2,3,4-tetrahydroisoquinoline-7-carboxamide]
–	1000 to 10000	O=C(NC1CCN(Cc2cccnc2)CC1)c1ccc2c(c1)CN(Cc1ccc(F)cc1)CC2 [Compound 41, 2-(4-Fluorobenzyl)-N-(1-(pyridine-3-ylmethyl)piperidin-4-yl)-1,2,3,4-tetrahydroisoquinoline-7-carboxamide]
–	100 to 1000	O=C(NC1CCN(Cc2ccc(C(F)(F)F)cc2)CC1)c1ccc2c(c1)CN(Cc1ccc(F)cc1)CC2 [Compound 42, 2-(4-Fluorobenzyl)-N-(1-(4-(trifluoromethyl)benzyl)piperidin-4-yl)-1,2,3,4-tetrahydroisoquinoline-7-carboxamide]

The remaining lines, values behind:

Compound	EC50 (Table 7) [nM]	EC50 (Table 8) [nM]
N#Cc1ccc(CN2CCC(NC(=O)c3ccc(C(=O)NC4CCN(Cc5ccccc5)CC4)cc3)CC2)cc1 [Compound 33, N^1-(1-Benzylpiperidin-4-yl)-N^4-(1-(4-cyanobenzyl)piperidin-4-yl)terephthalamide]	10000 to 100000	–
N#Cc1ccc(CN2CCC(NC(=O)c3ccc4c(c3)CN(Cc3ccc(C#N)cc3)CC4)CC2)cc1 [Compound 37, 2-(4-cyanobenzyl)-N-(1-(4-cyanobenzyl)piperidin-4-yl)-1,2,3,4-tetrahydroisoquinoline-7-carboxamide]	–	< 100
N#Cc1ccc(CN2CCc3ccc(C(=O)NC4CCN(Cc5cccnc5)CC4)cc3C2)cc1 [Compound 38, 2-(4-Cyanobenzyl)-N-(1-(pyridin-3-ylmethyl)piperidin-4-yl)-1,2,3,4-tetrahydroisoquinoline-7-carboxamide]	–	< 100
